Laboratory results taken from US10758534B2 (Vertex Pharmaceuticals Incorporated, priority 2014, dated 2020).

Biological target: T1, F508del (Homo sapiens, UniProt P13569, DEL508-508)
T1 construct: expressed in transfected cells
Experiment: Protocol 2: FRET membrane potential optical assay (VIPR), identification of correction compounds
Assay type: cell-based
Conditions: Table 3; compounds of Table 1 as modulators of CFTR activity; protocol not stated
Procedure, shortened: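 Correction of the F508del trafficking defect is scored as forskolin (10 μM)/genistein (20 μM)-stimulated Cl^− efflux in NIH3T3 mouse fibroblasts after a 16 hr, 37° C. compound exposure. Depolarization was followed optically using voltage-sensing FRET dyes.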

T1 sequence (P13569 with tags, fused parts or gaps DEL508-508): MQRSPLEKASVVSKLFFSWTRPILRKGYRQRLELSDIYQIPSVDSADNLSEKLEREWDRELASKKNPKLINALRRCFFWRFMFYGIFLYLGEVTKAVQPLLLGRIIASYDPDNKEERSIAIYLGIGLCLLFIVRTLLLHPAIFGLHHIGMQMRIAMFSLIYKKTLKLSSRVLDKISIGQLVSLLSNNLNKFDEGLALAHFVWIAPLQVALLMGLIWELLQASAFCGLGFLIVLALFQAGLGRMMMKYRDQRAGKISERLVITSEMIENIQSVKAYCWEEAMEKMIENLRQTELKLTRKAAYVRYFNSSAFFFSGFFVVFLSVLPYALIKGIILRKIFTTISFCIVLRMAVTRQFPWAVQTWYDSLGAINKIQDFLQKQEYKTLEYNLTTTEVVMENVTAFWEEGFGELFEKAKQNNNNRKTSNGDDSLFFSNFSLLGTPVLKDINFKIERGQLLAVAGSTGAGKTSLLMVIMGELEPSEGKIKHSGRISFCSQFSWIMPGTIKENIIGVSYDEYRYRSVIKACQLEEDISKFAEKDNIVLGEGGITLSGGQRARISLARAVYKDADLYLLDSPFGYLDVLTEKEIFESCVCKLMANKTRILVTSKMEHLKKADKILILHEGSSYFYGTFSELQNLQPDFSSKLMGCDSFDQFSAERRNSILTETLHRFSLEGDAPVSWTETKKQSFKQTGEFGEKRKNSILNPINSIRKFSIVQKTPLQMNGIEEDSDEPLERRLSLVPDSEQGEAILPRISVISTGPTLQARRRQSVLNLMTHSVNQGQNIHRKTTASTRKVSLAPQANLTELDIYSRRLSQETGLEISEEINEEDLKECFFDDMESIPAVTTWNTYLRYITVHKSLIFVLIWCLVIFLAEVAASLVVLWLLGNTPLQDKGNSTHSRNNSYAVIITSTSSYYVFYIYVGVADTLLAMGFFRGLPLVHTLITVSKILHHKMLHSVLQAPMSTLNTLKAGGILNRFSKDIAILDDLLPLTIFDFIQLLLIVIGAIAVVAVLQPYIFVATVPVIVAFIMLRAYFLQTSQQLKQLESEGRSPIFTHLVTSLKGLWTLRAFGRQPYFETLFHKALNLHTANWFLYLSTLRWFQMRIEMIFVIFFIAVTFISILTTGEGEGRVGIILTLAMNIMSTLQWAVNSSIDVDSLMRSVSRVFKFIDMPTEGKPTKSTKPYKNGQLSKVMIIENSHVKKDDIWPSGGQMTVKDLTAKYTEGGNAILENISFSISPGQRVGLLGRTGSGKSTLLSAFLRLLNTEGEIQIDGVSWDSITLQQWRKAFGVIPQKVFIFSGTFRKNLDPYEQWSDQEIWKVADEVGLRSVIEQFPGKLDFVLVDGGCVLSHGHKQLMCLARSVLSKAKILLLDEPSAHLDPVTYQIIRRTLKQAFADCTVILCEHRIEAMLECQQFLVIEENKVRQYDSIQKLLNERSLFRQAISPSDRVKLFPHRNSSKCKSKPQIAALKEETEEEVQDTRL

Structure (SMILES) | EC30
Cc1cc(C)c(Oc2nc(-c3ccc(Cl)cc3)ccc2C(=O)NS(=O)(=O)c2cccc(N)n2)c(C)c1 [Compound 234, N-[(6-amino-2-pyridyl)sulfonyl]-6-(4-chlorophenyl)-2-(2,4,6-trimethylphenoxy)pyridine-3-carboxamide] | +++ (“+++” means <3 uM)
Cc1cc(C)c(Oc2nc(C(C)(C)C)ccc2C(=O)NS(=O)(=O)c2cccnc2N)c(C)c1 [Compound 235, N-[(2-amino-3-pyridyl)sulfonyl]-6-tert-butyl-2-(2,4,6-trimethylphenoxy)pyridine-3-carboxamide] | +++ (“+++” means <3 uM)
Cc1cc(C)c(CN2C[C@@H](c3ccccc3)C[C@H]2C(=O)NS(=O)(=O)c2cccc(N)n2)c(C)c1 [Compound 236, (2S,4R)—N-[(6-Amino-2-pyridyl)sulfonyl]-4-phenyl-1-[(2,4,6-trimethylphenyl)methyl]pyrrolidine-2-carboxamide] | ++ (“++” means between 3 uM and 10 uM)
Cc1cc(F)cc(-c2nc(C(C)(C)C)ccc2C(=O)NS(=O)(=O)c2cccc(N)c2)c1 [Compound 237, N-(3-aminophenyl)sulfonyl-6-tert-butyl-2-(3-fluoro-5-methyl-phenyl)pyridine-3-carboxamide] | ++ (“++” means between 3 uM and 10 uM)
Cc1cc(C)c(Oc2nc(-c3ccc(Cl)c(OCC(C)C)c3)ccc2C(=O)NS(=O)(=O)c2cccc(N)n2)c(C)c1 [Compound 238, N-[(6-amino-2-pyridyl)sulfonyl]-6-(4-chloro-3-isobutoxy-phenyl)-2-(2,4,6-trimethylphenoxy)pyridine-3-carboxamide] | +++ (“+++” means <3 uM)
CC(C)(C)c1cc(C(=O)NS(=O)(=O)c2cccc(N)c2)n(Cc2c(F)cccc2C(F)(F)F)n1 [Compound 239, N-(3-aminophenyl)sulfonyl-5-tert-butyl-2-[[2-fluoro-6-(trifluoromethyl)phenyl]methyl]pyrazole-3-carboxamide] | +++ (“+++” means <3 uM)
Cc1cc(C)c(Oc2nc3ccccc3cc2C(=O)NS(=O)(=O)c2ccncc2)c(C)c1 [Compound 240, N-(4-pyridylsulfonyl)-2-(2,4,6-trimethylphenoxy)quinoline-3-carboxamide] | ++ (“++” means between 3 uM and 10 uM)
COc1ccc2c(c1)cc(C(=O)NS(=O)(=O)c1ccccc1)n2Cc1c(C)cc(C)cc1C [Compound 241, N-(benzenesulfonyl)-5-methoxy-1-[(2,4,6-trimethylphenyl)methyl]indole-2-carboxamide] | +++ (“+++” means <3 uM)
Cc1cc(C)c(Cn2cc(C(C)(C)C)cc2C(=O)NS(=O)(=O)c2ccccc2)c(C)c1 [Compound 242, N-(benzenesulfonyl)-4-tert-butyl-1-[(2,4,6-trimethylphenyl)methyl]pyrrole-2-carboxamide] | +++ (“+++” means <3 uM)
Cc1cccc(C)c1Oc1nc(C(F)(F)F)ccc1C(=O)NS(=O)(=O)c1cccc(N)c1 [Compound 243, N-(3-aminophenyl)sulfonyl-2-(2,6-dimethylphenoxy)-6-(trifluoromethyl)pyridine-3-carboxamide] | +++ (“+++” means <3 uM)
Cc1cc(C)c(Oc2nc(C(F)(F)F)ccc2C(=O)NS(=O)(=O)c2ccccc2)c(C)c1 [Compound 244, N-(benzenesulfonyl)-6-(trifluoromethyl)-2-(2,4,6-trimethylphenoxy)pyridine-3-carboxamide] | +++ (“+++” means <3 uM)
Cn1ccc2c(Cn3nc(C(C)(C)C)cc3C(=O)NS(=O)(=O)c3ccccc3)cccc21 [Compound 245, N-(benzenesulfonyl)-5-tert-butyl-2-[(1-methylindol-4-yl)methyl]pyrazole-3-carboxamide] | ++ (“++” means between 3 uM and 10 uM)
Cc1cccc(C)c1Oc1nc(C(F)(F)F)ccc1C(=O)NS(=O)(=O)c1cccc(N)n1 [Compound 246, N-[(6-amino-2-pyridyl)sulfonyl]-2-(2,6-dimethylphenoxy)-6-(trifluoromethyl)pyridine-3-carboxamide] | ++ (“++” means between 3 uM and 10 uM)
Cc1cc(C)c(Cn2c(C(=O)NS(=O)(=O)c3ccccn3)cc3ccccc32)c(C)c1 [Compound 247, N-(2-pyridylsulfonyl)-1-[(2,4,6-trimethylphenyl)methyl]indole-2-carboxamide] | +++ (“+++” means <3 uM)
Cc1cc(C)c(Cn2c(C(=O)NS(=O)(=O)c3ccccc3)cc3cc(C)ccc32)c(C)c1 [Compound 248, N-(benzenesulfonyl)-5-methyl-1-[(2,4,6-trimethylphenyl)methyl]indole-2-carboxamide] | +++ (“+++” means <3 uM)
CNc1cccc(S(=O)(=O)NC(=O)c2cc(C(C)(C)C)nn2Cc2c(C)cc(C)cc2C)c1 [Compound 249, 5-tert-butyl-N-[3-(methylamino)phenyl]sulfonyl-2-[(2,4,6-trimethylphenyl)methyl]pyrazole-3-carboxamide] | +++ (“+++” means <3 uM)
CCOc1ccccc1-c1ccc(C(=O)NS(=O)(=O)c2cccc(N)n2)c(Oc2c(C)cc(C)cc2C)n1 [Compound 250, N-[(6-amino-2-pyridyl)sulfonyl]-6-(2-ethoxyphenyl)-2-(2,4,6-trimethylphenoxy)pyridine-3-carboxamide] | +++ (“+++” means <3 uM)

Structure (SMILES) | EC30
Cc1ccc(Oc2nc(C(C)(C)C)ccc2C(=O)NS(=O)(=O)c2cccc(N)c2)c(C)c1 [Compound 251, N-(3-aminophenyl)sulfonyl-6-tert-butyl-2-(2,4-dimethylphenoxy)pyridine-3-carboxamide] | +++ (“+++” means <3 uM)
CC(C)(C)c1ccc(-c2nc(C(C)(C)C)ccc2C(=O)NS(=O)(=O)c2cccc(N)c2)cc1 [Compound 252, N-(3-aminophenyl)sulfonyl-6-tert-butyl-2-(4-tert-butylphenyl)pyridine-3-carboxamide] | +++ (“+++” means <3 uM)
COc1cccc(S(=O)(=O)NC(=O)c2cc3ccccc3n2Cc2c(C)cc(C)cc2C)n1 [Compound 253, N-[(6-methoxy-2-pyridyl)sulfonyl]-1-[(2,4,6-trimethylphenyl)methyl]indole-2-carboxamide] | +++ (“+++” means <3 uM)
Cc1cc(C)c(CN2Cc3ccccc3C2C(=O)NS(=O)(=O)c2cccc(O)c2)c(C)c1 (stereo not drawn) [Compound 254, N-(3-hydroxyphenyl)sulfonyl-2-[(2,4,6-trimethylphenyl)methyl]isoindoline-1-carboxamide] | ++ (“++” means between 3 uM and 10 uM)
Cc1cc(C)c(Cn2cc(C(C)(C)C)nc2C(=O)NS(=O)(=O)c2cccc(N)c2)c(C)c1 [Compound 255, N-(3-aminophenyl)sulfonyl-4-tert-butyl-1-[(2,4,6-trimethylphenyl)methyl]imidazole-2-carboxamide] | +++ (“+++” means <3 uM)
Cc1cc(C)c(Oc2nn(C(C)(C)C)cc2C(=O)NS(=O)(=O)c2cccc(N)n2)c(C)c1 [Compound 256, N-[(6-amino-2-pyridyl)sulfonyl]-1-tert-butyl-3-(2,4,6-trimethylphenoxy)pyrazole-4-carboxamide] | +++ (“+++” means <3 uM)
Cc1cccc(C)c1Cn1nc(C(C)(C)C)cc1C(=O)NS(=O)(=O)c1ccccc1 [Compound 257, N-(benzenesulfonyl)-5-tert-butyl-2-[(2,6-dimethylphenyl)methyl]pyrazole-3-carboxamide] | +++ (“+++” means <3 uM)
COc1cccnc1S(=O)(=O)NC(=O)c1cc2ccccc2n1Cc1c(C)cc(C)cc1C [Compound 258, N-[(3-methoxy-2-pyridyl)sulfonyl]-1-[(2,4,6-trimethylphenyl)methyl]indole-2-carboxamide] | ++ (“++” means between 3 uM and 10 uM)
Cc1cc(C)c(Cn2c(C(=O)NS(=O)(=O)c3cccc(N)c3)cc3cc(C)ccc32)c(C)c1 [Compound 259, N-(3-aminophenyl)sulfonyl-5-methyl-1-[(2,4,6-trimethylphenyl)methyl]indole-2-carboxamide] | +++ (“+++” means <3 uM)
Cc1cc(C)c(Oc2nc3ccccc3cc2C(=O)NS(=O)(=O)c2cccc(N)c2)c(C)c1 [Compound 260, N-(3-aminophenyl)sulfonyl-2-(2,4,6-trimethylphenoxy)quinoline-3-carboxamide] | ++ (“++” means between 3 uM and 10 uM)
Cc1cc(C)c(Cn2nc(C(C)(C)C)nc2C(=O)NS(=O)(=O)c2cccc(N)c2)c(C)c1 [Compound 261, N-(3-aminophenyl)sulfonyl-5-tert-butyl-2-[(2,4,6-trimethylphenyl)methyl]-1,2,4-triazole-3-carboxamide] | +++ (“+++” means <3 uM)
CNc1cccc(S(=O)(=O)NC(=O)c2ccc(C(C)(C)C)nc2Oc2c(C)cc(C)cc2C)n1 [Compound 262, 6-tert-butyl-N-[[6-(methylamino)-2-pyridyl]sulfonyl]-2-(2,4,6-trimethylphenoxy)pyridine-3-carboxamide] | +++ (“+++” means <3 uM)
Cc1cccc(C)c1Cn1nc(-c2ccc3c(ccn3C)c2)cc1C(=O)NS(=O)(=O)c1ccccc1 [Compound 263, N-(benzenesulfonyl)-2-[(2,6-dimethylphenyl)methyl]-5-(1-methylindol-5-yl)pyrazole-3-carboxamide] | +++ (“+++” means <3 uM)
Cc1cc(C)c(Cn2c(C(=O)NS(=O)(=O)c3ccccc3)cc3ccccc32)c(C)c1 [Compound 264, N-(benzenesulfonyl)-1-[(2,4,6-trimethylphenyl)methyl]indole-2-carboxamide] | +++ (“+++” means <3 uM)
Cc1cc(C)c(Oc2nc(C(C)(C)C)ccc2C(=O)NS(=O)(=O)c2nc(N)cs2)c(C)c1 [Compound 265, N-(4-aminothiazol-2-yl)sulfonyl-6-tert-butyl-2-(2,4,6-trimethylphenoxy)pyridine-3-carboxamide] | +++ (“+++” means <3 uM)
Cc1cc(C)c(Cn2nc(C(C)(C)C)cc2C(=O)NS(=O)(=O)c2ccccc2C#N)c(C)c1 [Compound 266, 5-tert-butyl-N-(2-cyanophenyl)sulfonyl-2-[(2,4,6-trimethylphenyl)methyl]pyrazole-3-carboxamide] | +++ (“+++” means <3 uM)
